# From patent US7288659B2, “Acylaminothiazole derivatives, their preparation and therapeutic use” (Sanofi-Aventis, priority 2001, dated 2007)
# Structures can show the parent of a compound that is named as a salt.
row,melting point [°C],SMILES
1,186,"CCC[C@H](NC(=O)Cc1cc(F)cc(F)c1)C(=O)Nc1nc(C)c(-c2ccccc2COC2CCN(C)CC2)s1 (as salt: phosphate) [compound 68, (2S)-N-(5-{2-[(N-methylpiperidin-4-yloxy)methyl]-phenyl}-4-methyl-1,3-thiazol-2-yl)-2-{[2-(3,5-difluorophenyl)acetyl]amino}pentanamide]"
2,169,"C[C@H](NC(=O)[C@H](O)c1cc(F)cc(F)c1)C(=O)Nc1ncc(-c2ccccc2COC2CCCCC2)s1 (racemic) [Compound No. 50, (2S)-N-(5-{2-[(cyclohexyloxy)methyl]phenyl}-1,3-thiazol-2-yl)-2-{[(2R)-2-(3,5-difluorophenyl)-2-hydroxyacetyl]amino}propanamide]"
3,78,"C[C@H](NC(=O)[C@H](F)c1cc(F)cc(F)c1)C(=O)Nc1ncc(-c2ccccc2COC2CCCCC2)s1 (racemic) [Compound No. 65, (2S)-N-(5-{2-[(cyclohexyloxy)methyl]phenyl}-1,3-thiazol-2-yl)-2-{[(2R)-2-(3,5-difluorophenyl)-2-fluoroacetyl]amino}propanamide]"
4,126,"CC(NC(=O)Cc1cc(F)cc(F)c1)C(=O)Nc1ncc(-c2ccccc2COC2CCCCC2)s1 (stereo not shown) [Compound No. 2, N-(5-{2-[(cyclohexyloxy)methyl]phenyl}-1,3-thiazol-2-yl)-2-{[2-(3,5-difluorophenyl)acetyl]amino}propanamide]"
5,114,"CC(NC(=O)Cc1cc(F)cc(F)c1)C(=O)Nc1ncc(-c2ccccc2COc2ccccc2)s1 (stereo not shown) [Compound No. 5, 2-{[2-(3,5-difluorophenyl)acetyl]amino}-N-{5-[2-(phenoxymethyl)phenyl]-1,3-thiazol-2-yl}propanamide]"
6,147,"CC(NC(=O)Cc1cc(F)cc(F)c1)C(=O)Nc1ncc(-c2ccccc2COCc2ccccc2)s1 (stereo not shown) [Compound No. 6, N-(5-{2-[(benzyloxy)methyl]phenyl}-1,3-thiazol-2-yl)-2-{[2-(3,5-difluorophenyl)acetyl]amino}propanamide]"
7,140,"C[C@H](NC(=O)Cc1cc(F)cc(F)c1)C(=O)Nc1ncc(-c2ccccc2COC2CCCCC2)s1 [Compound No. 26, (2S)-N-(5-{2-[(cyclohexyloxy)methyl]phenyl}-1,3-thiazol-2-yl)-2-{[2-(3,5-difluorophenyl)acetyl]amino}-propanamide]"
8,159,"C[C@H](NC(=O)[C@@H](O)c1cc(F)cc(F)c1)C(=O)Nc1ncc(-c2ccccc2COC2CCCCC2)s1 [Compound No. 51, (2S)-N-(5-{2-[(cyclohexyloxy)methyl]phenyl}-1,3-thiazol-2-yl)-2-{[(2S)-2-(3,5-difluorophenyl)-2-hydroxyacetyl]amino}propanamide]"
9,88,"CCC[C@H](NC(=O)C(C)c1cc(F)cc(F)c1)C(=O)Nc1ncc(-c2ccccc2COC2CCCCC2)s1 (stereo partly drawn) [Compound No. 58, (2S)-N-(5-{2-[(cyclohexyloxy)methyl]phenyl}-1,3-thiazol-2-yl)-2-{[2-(3,5-difluorophenyl)propanoyl]-amino}pentanamide]"
10,78,"C[C@H](NC(=O)C(=O)c1cc(F)cc(F)c1)C(=O)Nc1ncc(-c2ccccc2COC2CCCCC2)s1 [Compound No. 61, (2S)-N-(5-{2-[(cyclohexyloxy)methyl]phenyl}-1,3-thiazol-2-yl)-2-{[2-(3,5-difluorophenyl)-2-oxoacetyl]-amino}propanamide]"
11,158,"C[C@H](NC(=O)[C@@H](F)c1cc(F)cc(F)c1)C(=O)Nc1ncc(-c2ccccc2COC2CCCCC2)s1 [Compound No. 66, (2S)-N-(5-{2-[(cyclohexyloxy)methyl]phenyl}-1,3-thiazol-2-yl)-2-{[(2S)-2-(3,5-difluorophenyl)-2-fluoroacetyl]amino}propanamide]"
12,73.9,"CCC[C@H](NC(=O)Cc1cc(F)cc(F)c1)C(=O)Nc1ncc(-c2ccc(OC)cc2COC(C)C)s1 [Compound No. 75, (2S)-2-{[2-(3,5-difluorophenyl)acetyl]amino}-N-(5-{2-(isopropoxymethyl)-4-methoxyphenyl}-1,3-thiazol-2-yl)pentanamide]"
13,165,"CCOCc1ccccc1-c1cnc(NC(=O)C(C)NC(=O)Cc2cc(F)cc(F)c2)s1 (stereo not shown) [compound 3, 2-{[2-(3,5-difluorophenyl)acetyl]amino}-N-{5-[2-(ethoxymethyl)phenyl]-1,3-thiazol-2-yl}propanamide]"
14,143,"CC(NC(=O)Cc1cc(F)cc(F)c1)C(=O)Nc1ncc(-c2ccccc2COCC2CCCCC2)s1 (stereo not shown) [compound 8, N-(5-{2-[(cyclohexylmethoxy)methyl]phenyl}-1,3-thiazol-2-yl)-2-{[2-(3,5-difluorophenyl)acetyl]amino}-propanamide]"
15,179,"CCC(NC(=O)Cc1cc(F)cc(F)c1)C(=O)Nc1ncc(-c2ccccc2COC2CCCCC2)s1 (stereo not shown) [compound 9, N-(5-{2-[(cyclohexyloxy)methyl]phenyl}-1,3-thiazol-2-yl}-2-{[2-(3,5-difluorophenyl)acetyl]amino}butanamide]"
16,181,"CC(C)C(NC(=O)Cc1cc(F)cc(F)c1)C(=O)Nc1ncc(-c2ccccc2COC2CCCCC2)s1 (stereo not shown) [compound 10, N-(5-{2-[(cyclohexyloxy)methyl]phenyl}-1,3-thiazol-2-yl}-2-{[2-(3,5-difluorophenyl)acetyl]amino}-3-methylbutanamide]"
17,162,"CC(NC(=O)Cc1ccccc1)C(=O)Nc1ncc(-c2ccccc2COC2CCCCC2)s1 (stereo not shown) [compound 11, N-(5-{2-[(cyclohexyloxy)methyl]phenyl}-1,3-thiazol-2-yl}-2-[(2-phenylacetyl)amino]propanamide]"
18,152,"Cc1nc(NC(=O)C(C)NC(=O)Cc2cc(F)cc(F)c2)sc1-c1ccccc1COC1CCCCC1 (stereo not shown) [compound 12, N-(5-{2-[(cyclohexyloxy)methyl]phenyl}-4-methyl-1,3-thiazol-2-yl)-2-{[2-(3,5-difluorophenyl)acetyl]-amino}propanamide]"
19,194,"COCc1ccccc1-c1cnc(NC(=O)C(C)NC(=O)Cc2cc(F)cc(F)c2)s1 (stereo not shown) [compound 13, 2-{[2-(3,5-difluorophenyl)acetyl]amino}-N-{5-[2-(methoxymethyl)phenyl]-1,3-thiazol-2-yl}propanamide]"
20,104,"Cc1nc(NC(=O)C(C)NC(=O)Cc2cc(F)cc(F)c2)sc1-c1ccccc1COC1CCCC1 (stereo not shown) [compound 14, N-(5-{2-[(cyclopentyloxy)methyl]phenyl}-4-methyl-1,3-thiazol-2-yl)-2-{[2-(3,5-difluorophenyl)acetyl]-amino}propanamide]"
21,172,"O=C(Cc1cc(F)cc(F)c1)NCC(=O)Nc1ncc(-c2ccccc2COC2CCCCC2)s1 [compound 15, N-{2-[(5-{2-[(cyclohexyloxy)methyl]phenyl}-1,3-thiazol-2-yl)amino]-2-oxoethyl}-2-(3,5-difluorophenyl)-acetamide]"

row,SMILES,melting point [°C]
1,"CC(C)COCc1ccccc1-c1cnc(NC(=O)C(C)NC(=O)Cc2cc(F)cc(F)c2)s1 (stereo not shown) [compound 4, 2-{[2-(3,5-difluorophenyl)acetyl]amino}-N-{5-[2-(isobutoxymethyl)phenyl]-1,3-thiazol-2-yl}propanamide]",181
